The results in this text go back to US20100173930A1, “Certain Chemical Entities, Compositions and Methods” (priority 2006, published 2010).

Structures are written as SMILES.

In the experiment the test system is SKM MYOFIBRIL
In words: SKM myofibril AC1.4 (ATPase, PK/LDH coupled enzyme system). Note: unit not given here. Type of experiment: biochemical. The note with it: screen at pCa=6.5.
Take `NC(=O)c1ccc2nc(-c3ccccc3O)c(NCc3ccc(F)cc3)n2c1` [3-{[(4-fluorophenyl)methyl]amino}-2-(2-hydroxyphenyl)-4-hydroimidazo[1,2-a]pyridine-6-carboxamide]: the “SKM MYOFIBRIL AC1.4 (median)” value worked out at 2.0079. For `CC(C)(O)c1ccc2nc(-c3ccccc3O)c(NCc3cccc(Cl)c3)n2c1` [2-(3-{[(3-chlorophenyl)methyl]amino}-6-(1-hydroxy-isopropyl)-4-hydroimidazo[1,2-a]pyridin-2-yl)phenol] the value was 2.0993; for `Cc1ccc2nc(-c3ccccc3O)c(NCc3cccc(Cl)c3)n2c1` [2-(3-{[(3-chlorophenyl)methyl]amino}-6-methyl-4-hydroimidazo[1,2-a]pyridin-2-yl)phenol], 1.1197. Under `Cc1ccc(CNc2c(-c3ccccc3O)nc3cc(C)ccn23)cc1` [2-(7-methyl-3-{[(4-methylphenyl)methyl]amino}-4-hydroimidazo[1,2-a]pyridin-2-yl)phenol] stands 16.3079; under `Cc1cccn2c(NC3CCCC3)c(-c3ccccc3O)nc12` [2-[3-(cyclopentylamino)-8-methyl-4-hydroimidazo[1,2-a]pyridin-2-yl]phenol], 11.3023. On to `OCc1ccn2c(NCc3cccc(Cl)c3)c(-c3ccccc3O)nc2c1` [2-(3-{[(3-chlorophenyl)methyl]amino}-7-(hydroxymethyl)-4-hydroimidazo[1,2-a]pyridin-2-yl)phenol], for which the “SKM MYOFIBRIL AC1.4 (median)” value came to 1.9956. With `C[C@@H](Nc1c(-c2ccc(O)cc2)nc2ccccn12)C(C)(C)C` [4-{3-[((1R)-1,2,2-trimethylpropyl)amino]-4-hydroimidazo[1,2-a]pyridin-2-yl}phenol], the “SKM MYOFIBRIL AC1.4 (median)” value was found to be 15.0489. For `Oc1ccc(-c2nc3ccccn3c2NCc2cccc(Cl)c2)cc1` [4-(3-{[(3-chlorophenyl)methyl]amino}-4-hydroimidazo[1,2-a]pyridin-2-yl)phenol] the value was 10.5567; for `COC(=O)c1ccc2nc(-c3ccccc3O)c(NCc3cccc(Cl)c3)n2c1` [methyl 3-{[(3-chlorophenyl)methyl]amino}-2-(2-hydroxyphenyl)-4-hydroimidazo[1,2-a]pyridine-6-carboxylate], 2.0174; for `c1csc(-c2nc3ccccn3c2NC2CCCCC2)c1` [cyclohexyl(2-(2-thienyl)(4-hydroimidazo[1,2-a]pyridin-3-yl))amine], 16.7359. For `OCc1ccc2nc(-c3ccccc3O)c(NCc3cccc(Cl)c3)n2c1` [2-(3-{[(3-chlorophenyl)methyl]amino}-6-(hydroxymethyl)-4-hydroimidazo[1,2-a]pyridin-2-yl)phenol] the value was 1.6756; for `Cc1ccn2c(NCc3cccc(Cl)c3)c(-c3ccc(Cl)cc3O)nc2c1` [5-chloro-2-(3-{[(3-chlorophenyl)methyl]amino}-7-methyl(4-hydroimidazo[1,2-a]pyridin-2-yl))phenol], 20.0045. Under `Oc1ccc(-c2nc3ccc(Cl)cn3c2NCc2ccc(F)cc2)cc1` [4-(6-chloro-3-{[(4-fluorophenyl)methyl]amino}-4-hydroimidazo[1,2-a]pyridin-2-yl)phenol] stands 14.9602; under `Fc1ccc(-c2nc3ccccn3c2NC2CCCCC2)cc1` [cyclohexyl[2-(4-fluorophenyl)(4-hydroimidazo[1,2-a]pyridin-3-yl)]amine], 9.155.

As for `Oc1ccccc1-c1nc2cccc(Br)n2c1NCc1cccc(Cl)c1` [2-(5-bromo-3-{[(3-chlorophenyl)methyl]amino}-4-hydroimidazo[1,2-a]pyridin-2-yl)phenol], the “SKM MYOFIBRIL AC1.4 (median)” value worked out at 12.5914. For the molecule `Oc1ccccc1-c1nc2ccccn2c1NC1CCCC1` [2-[3-(cyclopentylamino)-4-hydroimidazo[1,2-a]pyridin-2-yl]phenol], the “SKM MYOFIBRIL AC1.4 (median)” value was determined as 11.2917. Consider `Oc1ccccc1-c1nc2cnccn2c1NCc1cccs1` [2-{3-[(2-thienylmethyl)amino]-4-hydroimidazo[1,2-a]pyrazin-2-yl}phenol], for which the “SKM MYOFIBRIL AC1.4 (median)” value came out at 10.6577. Under `COc1cccc(-c2nc3ccccn3c2NCc2cccc(Cl)c2)c1` [[(3-chlorophenyl)methyl][2-(3-methoxyphenyl)(4-hydroimidazo[1,2-a]pyridin-3-yl)]amine] stands 35.6445; under `CCc1ccn2c(NCc3cccc(Cl)c3)c(-c3ccccc3O)nc2c1` [2-(3-{[(3-chlorophenyl)methyl]amino}-7-ethyl-4-hydroimidazo[1,2-a]pyridin-2-yl)phenol], 0.9168. In the case of `Oc1ccccc1-c1nc2ccccn2c1NCc1ccc(F)cc1` [2-(3-{[(4-fluorophenyl)methyl]amino}-4-hydroimidazo[1,2-a]pyridin-2-yl)phenol], the “SKM MYOFIBRIL AC1.4 (median)” value was found to be 3.2661.

`Cc1ccn2c(NCc3cccc(Cl)c3)c(-c3ccc(O)cc3O)nc2c1` [4-(3-{[(3-chlorophenyl)methyl]amino}-7-methyl-4-hydroimidazo[1,2-a]pyridin-2-yl)benzene-1,3-diol]: the “SKM MYOFIBRIL AC1.4 (median)” value came out at 22.1516.

As to `Cc1ccn2c(NCc3ccc(F)cc3F)c(-c3ccccc3O)nc2c1` [2-(3-{[(2,4-difluorophenyl)methyl]amino}-7-methyl-4-hydroimidazo[1,2-a]pyridin-2-yl)phenol], the “SKM MYOFIBRIL AC1.4 (median)” value was 0.959. Turning to `Cc1ccn2c(NCc3cccc(F)c3)c(-c3ccccc3O)nc2c1` [2-(3-{[(3-fluorophenyl)methyl]amino}-7-methyl-4-hydroimidazo[1,2-a]pyridin-2-yl)phenol], the “SKM MYOFIBRIL AC1.4 (median)” value is listed as 1.4096. With `Oc1ccccc1-c1nc2cnccn2c1NCc1ccc(F)cc1` [2-(3-{[(4-fluorophenyl)methyl]amino}-4-hydroimidazo[1,2-a]pyrazin-2-yl)phenol], the “SKM MYOFIBRIL AC1.4 (median)” value is given as 4.6013.

As for `CCCCNc1c(-c2ccc(O)cc2)nc2ccccn12` [4-[3-(butylamino)-4-hydroimidazo[1,2-a]pyridin-2-yl]phenol], the “SKM MYOFIBRIL AC1.4 (median)” value is 27.9936. Under `CNC(=O)c1ccc2nc(-c3ccccc3O)c(NCc3cccc(Cl)c3)n2c1` [(3-{[(3-chlorophenyl)methyl]amino}-2-(2-hydroxyphenyl)(4-hydroimidazo[1,2-a]pyridin-6-yl))-N-methylcarboxamide] stands 1.2348; under `N#Cc1ccn2c(NCc3ccc(F)cc3)c(-c3ccc(O)cc3)nc2c1` [3-{[(4-fluorophenyl)methyl]amino}-2-(4-hydroxyphenyl)-4-hydroimidazo[1,2-a]pyridine-7-carbonitrile], 19.6705; under `Oc1ccccc1-c1nc2ccccn2c1NC1CCCCC1` [2-[3-(cyclohexylamino)-4-hydroimidazo[1,2-a]pyridin-2-yl]phenol], 8.1939. With `CCC(C)(C)Nc1c(-c2cc3ccc(C)c(C)c3nc2O)nc2ccccn12` [3-{3-[(1,1-dimethylpropyl)amino](4-hydroimidazo[1,2-a]pyridin-2-yl)}-7,8-dimethylquinolin-2-ol], the “SKM MYOFIBRIL AC1.4 (median)” value is reported as 1.5814.

`Cc1ccn2c(NCc3cccc(Cl)c3)c(-c3ncccc3O)nc2c1` [2-(3-{[(3-chlorophenyl)methyl]amino}-7-methyl-4-hydroimidazo[1,2-a]pyridin-2-yl)pyridin-3-ol]: the “SKM MYOFIBRIL AC1.4 (median)” value was found to be 36.9847. Under `O=C(c1ccc2nc(-c3ccccc3O)c(NCc3cccc(Cl)c3)n2c1)N1CCOCC1` [3-{[(3-chlorophenyl)methyl]amino}-2-(2-hydroxyphenyl)(4-hydroimidazo[1,2-a]pyridin-6-yl) morpholin-4-yl ketone] stands 24.9925; under `COC(=O)c1ccn2c(NCc3cccc(Cl)c3)c(-c3ccccc3O)nc2c1` [methyl 3-{[(3-chlorophenyl)methyl]amino}-2-(2-hydroxyphenyl)-4-hydroimidazo[1,2-a]pyridine-7-carboxylate], 5.1088. For `Cc1cn2c(NCc3cccc(Cl)c3)c(-c3ccccc3O)nc2c(C)n1` [2-(3-{[(3-chlorophenyl)methyl]amino}-6,8-dimethyl-4-hydroimidazo[1,2-a]pyrazin-2-yl)phenol] the value was 6.4593. In the case of `N#Cc1ccc2nc(-c3ccc(O)cc3)c(NC3CCCC3)n2c1` [3-(cyclopentylamino)-2-(4-hydroxyphenyl)-4-hydroimidazo[1,2-a]pyridine-6-carbonitrile], the “SKM MYOFIBRIL AC1.4 (median)” value is 46.9669. Under `O=C(O)c1ccc2nc(-c3ccccc3O)c(NCc3cccc(Cl)c3)n2c1` [3-{[(3-chlorophenyl)methyl]amino}-2-(2-hydroxyphenyl)-4-hydroimidazo[1,2-a]pyridine-6-carboxylic acid] stands 15.043; under `Cc1ccn2c(NCc3cccc(Cl)c3)c(-c3ccccc3O)nc2n1` [2-(3-{[(3-chlorophenyl)methyl]amino}-7-methyl-4-hydroimidazo[1,2-a]pyrimidin-2-yl)phenol], 7.147; under `Cc1ccn2c(NCc3ccc(F)cn3)c(-c3ccccc3O)nc2c1` [2-(3-{[(5-fluoro(2-pyridyl))methyl]amino}-7-methyl-4-hydroimidazo[1,2-a]pyridin-2-yl)phenol], 7.3934. For `OCc1ccc2nc(-c3ccccc3O)c(NCc3ccc(F)cc3)n2c1` [2-(3-{[(4-fluorophenyl)methyl]amino}-6-(hydroxymethyl)-4-hydroimidazo[1,2-a]pyridin-2-yl)phenol], the “SKM MYOFIBRIL AC1.4 (median)” value is given as 4.3564. Turning to `CN(C)CCNCc1ccc2nc(-c3ccccc3O)c(NCc3cccc(Cl)c3)n2c1` [2-[6-({[2-(dimethylamino)ethyl]amino}methyl)-3-{[(3-chlorophenyl)methyl]amino}-4-hydroimidazo[1,2-a]pyridin-2-yl]phenol], the “SKM MYOFIBRIL AC1.4 (median)” value is listed as 6.9925. Under `Oc1ccc(-c2nc3ccccn3c2NC2CCCC2)cc1` [4-[3-(cyclopentylamino)-4-hydroimidazo[1,2-a]pyridin-2-yl]phenol] stands 19.8598. Under `CCc1ccn2c(NCc3ccc(F)cc3)c(-c3ccccc3O)nc2c1` [2-(7-ethyl-3-{[(4-fluorophenyl)methyl]amino}-4-hydroimidazo[1,2-a]pyridin-2-yl)phenol] stands 0.9459.
